From publication PMC12775149 (Nature Communications, 2025)

Legend:
AtCAT5 = target: T1, AtCAT5 (Arabidopsis thaliana, UniProt O64759); assay: LC-MS/MS of PPT accumulated in overexpressing M. polymorpha versus Tak-1; conditions: whole plants, 100 µM PPT (time course at 1 mM PPT up to 48 h)
T1 sequence (O64759 1-569): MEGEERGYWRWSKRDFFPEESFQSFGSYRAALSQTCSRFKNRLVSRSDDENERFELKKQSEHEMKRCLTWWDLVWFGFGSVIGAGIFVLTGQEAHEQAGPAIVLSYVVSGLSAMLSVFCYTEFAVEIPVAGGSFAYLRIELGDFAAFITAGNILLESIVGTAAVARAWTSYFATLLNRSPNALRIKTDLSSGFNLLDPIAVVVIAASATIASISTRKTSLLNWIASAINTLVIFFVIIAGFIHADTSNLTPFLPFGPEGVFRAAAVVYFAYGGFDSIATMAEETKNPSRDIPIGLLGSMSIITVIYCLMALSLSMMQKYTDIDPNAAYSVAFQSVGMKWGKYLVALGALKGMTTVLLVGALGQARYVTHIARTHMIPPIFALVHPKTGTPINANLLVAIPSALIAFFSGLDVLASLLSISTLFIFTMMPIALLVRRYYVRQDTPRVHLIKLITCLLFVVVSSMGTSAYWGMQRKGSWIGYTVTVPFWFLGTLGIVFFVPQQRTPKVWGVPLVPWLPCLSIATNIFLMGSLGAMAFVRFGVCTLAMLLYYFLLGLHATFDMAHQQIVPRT

AtCAT1 = target: T2, AtCAT1 (Arabidopsis thaliana, UniProt Q84MA5); assay: as above; conditions: whole plants, 100 µM PPT
T2 sequence (Q84MA5 2-594): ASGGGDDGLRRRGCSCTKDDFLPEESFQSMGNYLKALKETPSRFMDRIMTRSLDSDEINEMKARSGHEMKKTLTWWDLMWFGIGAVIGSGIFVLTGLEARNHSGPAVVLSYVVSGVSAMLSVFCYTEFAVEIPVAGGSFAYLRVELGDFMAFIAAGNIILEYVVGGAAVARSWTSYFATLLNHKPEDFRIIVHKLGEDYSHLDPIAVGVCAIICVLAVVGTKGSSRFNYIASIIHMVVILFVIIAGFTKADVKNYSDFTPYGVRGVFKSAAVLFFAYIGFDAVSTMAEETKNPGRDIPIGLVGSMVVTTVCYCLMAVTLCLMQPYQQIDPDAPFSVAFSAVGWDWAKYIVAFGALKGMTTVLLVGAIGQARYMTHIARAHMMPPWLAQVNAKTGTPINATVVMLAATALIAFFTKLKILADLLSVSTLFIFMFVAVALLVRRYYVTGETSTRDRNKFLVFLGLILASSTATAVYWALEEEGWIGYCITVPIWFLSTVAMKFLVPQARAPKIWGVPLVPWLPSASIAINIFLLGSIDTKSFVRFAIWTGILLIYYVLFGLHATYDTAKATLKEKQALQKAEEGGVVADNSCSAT

With `CP(=O)(O)CC[C@H](N)C(=O)O` [PPT, L-phosphinothricin] the PPT accumulation (AtCAT5) was “Increased PPT contents in both AtCAT1ox and AtCAT5ox lines confirmed the successful mediation” and the PPT accumulation (AtCAT1) was “Increased PPT contents in both AtCAT1ox and AtCAT5ox lines confirmed the successful mediation”.
